{"source": "paper PMC9106665", "about": "(Communications Biology, 2022)", "key": {"E. coli DHFR (EcDHFR)": {"target": "T1, E. coli DHFR (EcDHFR) (Escherichia coli, UniProt P0ABQ4)", "T1 construct": "E. coli DHFR gene (UniProtKB:P0ABQ4) and dfrA1 gene (UniProtKB:A4GRC7) were synthesized and cloned in pET-41a (+) vector; made in house; host or cells: E. coli BL21(DE3)", "assay": "biochemical", "protocol": "(§1) The assay was performed at room temperature using the Shimadzu UV/visible spectrophotometer. A standard reaction buffer contained 20 mM TES, pH 7.0, 50 mM KCl, 10 mM β-mercapthoethanol, 0.5 mM EDTA, and 1 mg/ml BSA. […] All measurements were performed in triplicate, from at least two independent experiments."}, "DfrA5 [1]": {"target": "T2, DfrA5 (Escherichia coli, UniProt P11731)", "format": "binding, E. coli", "design": "E. coli dfrA5 gene (UniProtKB:A0A4Y6L037) was synthesized and cloned in pET-24a (+) vector with the same restriction sites; 6xHis tag (C); made in house; host or cells: E. coli BL21(DE3)", "protocol": "(§2) In all, 200 µg of purified enzyme was preincubated for 18 h without and with a 10× molar excess of the ligand(s) (NADPH, TMP or PLA) in 20 mM Hepes 7.5, 100 mM KCl, 5% glycerol, ±2.0% DMSO and 2 mM DTT buffer. […] Changes in intrinsic fluorescence intensity (measured ratio of absorbance at 350 nm over 330 nm) from tryptophan residues were used to calculate derivatives using the evaluation features provided by the Tycho instrument. The inflection temperature (Ti) as a marker of protein structural integrity was determined by the first derivative of the signal (ratio of 350 nm/330 nm)."}, "[2]": {"system": "E. coli JW0451 acrB mutant strain", "assay": "microbe, parasite or virus in culture", "format": "cell-based", "conditions": "for MIC: w/o SMX, 80% inhibition of growth, 18 to 20 hours, 37°C", "protocol": "(§3) Preparation, handling of cultures and the antibiotic susceptibility testing was performed according to CLSI guidelines. […] The compounds at the highest concentrations alone and paired with Sulfamethoxazole (1:19 w/w ratio) were then added to the first well before being serially diluted (2-fold) throughout the plate, leaving the last well with broth only (negative growth control). Next, 50 μl of the inoculum was added to each well."}, "E. coli BW25113": {"system": "E. coli BW25113", "assay": "microbe, parasite or virus in culture", "format": "cell-based", "conditions": "for MIC: Escherichia coli, 80% inhibition of growth", "protocol": "as §3"}, "DfrA1 and DfrA5": {"system": "DfrA1 and DfrA5", "format": "biochemical, E. coli", "conditions": "range over DfrA1 and DfrA5", "protocol": "as §1"}, "[3]": {"conditions": "remark limiting MST studies"}, "DfrA5 [4]": {"target": "T2, DfrA5", "assay": "biochemical", "design": "species or system E. coli", "protocol": "as §1"}, "EcDHFR": {"target": "T3, EcDHFR (Escherichia coli, UniProt P0ABQ4)", "T3 construct": "E. coli DHFR gene (UniProtKB:P0ABQ4) and dfrA1 gene (UniProtKB:A4GRC7) were synthesized and cloned in pET-41a (+) vector; made in house; host or cells: E. coli BL21(DE3)", "format": "binding", "protocol": "as §2, with “instrument.” for “instrument. The inflection temperature (Ti) as a marker of protein structural integrity was determined by the first derivative of the signal (ratio of 350 nm/330 nm).”"}, "[5]": {"system": "E. coli BL21(DE3) strain overexpressing EcDHFR wt", "assay": "Antibacterial activity (MIC)", "format": "cell-based", "conditions": "Escherichia coli, w/o SMX"}, "[6]": {"system": "E. coli BL21(DE3) strain overexpressing DfrA5", "assay": "Antibacterial activity (MIC)", "format": "cell-based", "conditions": "Escherichia coli"}, "EcDHFR D27E": {"target": "T4, EcDHFR D27E (Escherichia coli, UniProt P0ABQ4, D27E)", "T4 construct": "using E. coli DHFR template previously synthesized by GeneScript; made in house; host or cells: E. coli BL21(DE3)", "T4 sequence (P0ABQ4 1-159 D27E)": "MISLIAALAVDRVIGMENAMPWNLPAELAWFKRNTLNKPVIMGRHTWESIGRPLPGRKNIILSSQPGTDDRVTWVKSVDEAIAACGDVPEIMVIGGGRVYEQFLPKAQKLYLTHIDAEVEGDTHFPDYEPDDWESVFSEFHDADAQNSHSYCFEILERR", "assay": "Enzyme inhibition assay (NADPH oxidation, 340 nm)", "format": "biochemical", "protocol": "as §1"}, "EcDHFR L28Q": {"target": "T5, EcDHFR L28Q (Escherichia coli, UniProt P0ABQ4, L28Q)", "T5 construct": "using E. coli DHFR template previously synthesized by GeneScript; made in house; host or cells: E. coli BL21(DE3)", "T5 sequence (P0ABQ4 1-159 L28Q)": "T4 sequence (P0ABQ4 1-159 D27E) with E27D, L28Q", "assay": "Enzyme inhibition assay (NADPH oxidation, 340 nm)", "format": "biochemical", "protocol": "as §1"}, "EcDHFR D27E/L28Q": {"target": "T6, EcDHFR D27E/L28Q (Escherichia coli, UniProt P0ABQ4, D27E/L28Q)", "T6 construct": "using E. coli DHFR template previously synthesized by GeneScript; made in house; host or cells: E. coli BL21(DE3)", "T6 sequence (P0ABQ4 1-159 D27E/L28Q)": "T4 sequence (P0ABQ4 1-159 D27E) with L28Q", "assay": "Enzyme inhibition assay (NADPH oxidation, 340 nm)", "format": "biochemical", "protocol": "as §1"}, "[7]": {"system": "E. coli BL21(DE3) strain overexpressing DfrA1", "assay": "Antibacterial activity (MIC)", "format": "cell-based", "conditions": "Escherichia coli"}, "DfrA1": {"target": "T7, DfrA1 (Escherichia coli, UniProt P00382)", "T7 construct": "dfrA1 gene (UniProtKB:A4GRC7) were synthesized and cloned in pET-41a (+) vector; made in house; host or cells: E. coli BL21(DE3)", "T7 sequence (P00382 1-157)": "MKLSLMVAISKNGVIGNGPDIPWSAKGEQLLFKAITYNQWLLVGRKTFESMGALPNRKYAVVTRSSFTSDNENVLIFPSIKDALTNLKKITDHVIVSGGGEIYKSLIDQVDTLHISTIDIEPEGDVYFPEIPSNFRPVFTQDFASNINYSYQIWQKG", "format": "binding, E. coli", "protocol": "as §2, with “instrument.” for “instrument. The inflection temperature (Ti) as a marker of protein structural integrity was determined by the first derivative of the signal (ratio of 350 nm/330 nm).”"}, "[8]": {"conditions": "binary complex, 10× molar excess of ligand"}}, "note": "Where a chain is given by its changes, count along the chain named. Where two headings read alike, the source gives them in different places."}
{"smiles": "CCc1nc(N)nc(N)c1C#CC(C)c1cc(-c2ccc(C(N)=O)cc2)ccc1Cl", "note": "(centres unmarked) [UCP1228]", "values": [{"measurement": "Ki", "setting": "E. coli DHFR (EcDHFR)", "result": "2.73 ± 0.09", "unit": "nM"}, {"measurement": "Δ (Ti shift vs apo)", "setting": "DfrA5 [1]; [8]", "result": 3.7, "unit": "°C"}, {"measurement": "Ti", "setting": "DfrA5 [1]; ternary complex, +NADPH", "result": "77.3 ± 4.7", "unit": "°C"}, {"measurement": "Δ (Ti shift vs apo)", "setting": "DfrA5 [1]; ternary complex, +NADPH", "result": 11, "unit": "°C"}, {"measurement": "Fold difference in MIC", "setting": "[2]; BW25113 w/o SMX vs JW0451 w/o SMX", "result": 8}, {"measurement": "MIC", "setting": "[2]; Escherichia coli", "result": 1.25, "unit": "µg/mL"}, {"measurement": "MIC", "setting": "[2]", "result": 0.625, "unit": "µg/mL"}, {"measurement": "Fold difference in MIC", "setting": "E. coli BW25113; BW25113 w/o SMX vs w/ SMX", "result": 16}, {"measurement": "MIC", "setting": "E. coli BW25113; BW25113, w/ SMX (1:19)", "result": 0.625, "unit": "µg/mL"}, {"measurement": "MIC", "setting": "E. coli BW25113; BW25113, w/o SMX, 18 to 20 hours, 37°C", "result": 10, "unit": "µg/mL"}, {"measurement": "fold loss of activity against DfrA1 and DfrA5 compared to EcDHFR", "setting": "DfrA1 and DfrA5", "result": "10–14 fold"}, {"measurement": "solubility", "setting": "[3]", "result": "low"}, {"measurement": "Ki", "setting": "DfrA5 [4]", "result": "20.1 ± 0.39", "unit": "nM"}, {"measurement": "Ti 1", "setting": "EcDHFR; [8]", "result": "65.5 ± 4.6", "unit": "°C"}, {"measurement": "Ti 2", "setting": "EcDHFR; [8]", "result": "76.5 ± 2.5", "unit": "°C"}, {"measurement": "Δ1 (Ti shift vs apo)", "setting": "EcDHFR; [8]", "result": 15.9, "unit": "°C"}, {"measurement": "Δ2 (Ti shift vs apo)", "setting": "EcDHFR; [8]", "result": 16.3, "unit": "°C"}, {"measurement": "Ti 1", "setting": "EcDHFR; ternary complex, +NADPH", "result": "64.3 ± 0.1", "unit": "°C"}, {"measurement": "Ti 2", "setting": "EcDHFR; ternary complex, +NADPH", "result": "75.7 ± 1.6", "unit": "°C"}, {"measurement": "Δ1 (Ti shift vs apo)", "setting": "EcDHFR; ternary complex, +NADPH", "result": 14.7, "unit": "°C"}, {"measurement": "Δ2 (Ti shift vs apo)", "setting": "EcDHFR; ternary complex, +NADPH", "result": 15.5, "unit": "°C"}, {"measurement": "MIC", "setting": "[5]", "result": 20, "unit": "µg/mL"}, {"measurement": "MIC", "setting": "[6]; w/ SMX (1:19)", "result": 20, "unit": "µg/mL"}, {"measurement": "MIC", "setting": "[6]; w/o SMX", "result": "> 20", "unit": "µg/mL"}, {"measurement": "Ki", "setting": "EcDHFR D27E", "result": "11.8 ± 0.4", "unit": "nM"}, {"measurement": "fold increase in Ki over EcDHFR", "setting": "EcDHFR D27E; D27E substitution", "result": 4, "unit": "fold"}, {"measurement": "Ki", "setting": "EcDHFR L28Q", "result": "10.5 ± 0.69", "unit": "nM"}, {"measurement": "Ki", "setting": "EcDHFR D27E/L28Q", "result": "189 ± 5.36", "unit": "nM"}, {"measurement": "fold loss in affinities relative to EcDHFR", "setting": "EcDHFR D27E/L28Q; combinatorial mutant D27E/L28Q", "result": 69, "unit": "fold"}, {"measurement": "MIC", "setting": "[7]; w/ SMX (1:19)", "result": 20, "unit": "µg/mL"}, {"measurement": "MIC", "setting": "[7]; w/o SMX", "result": "> 20", "unit": "µg/mL"}, {"measurement": "Ti", "setting": "DfrA1; [8]", "result": "55.4 ± 1.7", "unit": "°C"}, {"measurement": "Δ (Ti shift vs apo)", "setting": "DfrA1; [8]", "result": 5.6, "unit": "°C"}, {"measurement": "Ti", "setting": "DfrA1; ternary complex, +NADPH", "result": "66.5 ± 3.3", "unit": "°C"}, {"measurement": "Δ (Ti shift vs apo)", "setting": "DfrA1; ternary complex, +NADPH", "result": 16.7, "unit": "°C"}]}
